Test results as given in patent US6353009B1, “Method for the treatment and prevention of hyperuricemia” (Sankyo Company, Limited, priority 1997, dated 2002).
Where “and” joins values, the source holds several entries; their conditions need not be identical. Identical values can stand only once.

Legend:
uric acid = conditions: clinical examination values, Rinsho Iyaku 9, Suppl.3, 14 (1993), cited from earlier work
ddY mice (male) = assay type: in vivo; conditions: 300 mg/kg orally, three male ddY mice, observed for 5 days
Procedure: The acute toxicity of troglitazone was measured in a conventional manner. Specifically, 300 mg/kg of troglitazone was administered orally to three ddY mice (male), which were then observed for 5 days.

blood uric acid = assay: Improvement in hyperuricemia: blood uric acid level in patients given troglitazone; assay type: in vivo, human
Procedure: The level of uric acid in the blood of a patient may be measured in a conventional manner. Specifically, blood is collected before and after the administration, for a predetermined period, of a medicament to a patient suffering from hyperuricemia and then the blood uric acid level is measured, for example, by the uricase catalase method [Kageyama: Clin. Chim. Acta., 31, 421-426 (1971)]. A measuring kit employing the above method is commercially available (“Uricolor 400”, trade name; product of Ono Pharmaceutical Co., Ltd.)
4 adult human patients who had suffered from diabetes and hyperuricemia and whose blood uric acid level was not less than 7.0 mg/dl, were administered orally 200 mg of troglitazone twice a day (in the morning and in the evening). This administration was continued for 4 weeks. Both after and before administration, blood was collected and the blood uric acid level was measured.

In the case of `Cc1c(C)c2c(c(C)c1O)CCC(C)(COc1ccc(CC3SC(=O)NC3=O)cc1)O2` (stereo not drawn) [troglitazone, 5-[4-(6-hydroxy-2,5,7,8-tetramethylchroman-2-ylmethoxy)benzyl]thiazolidine-2,4-dione], the “uric acid level before administration” value (uric acid; baseline) is given as 4.7±1.7, the “uric acid level after administration” value (uric acid) is given as 4.4±1.4 and the “survival (acute toxicity)” value (ddY mice (male)) is given as “All of them survived”. The “Blood uric acid level, Week 4” value (blood uric acid; adult human patients with diabetes and hyperuricemia, 200 mg orally twice a day for 4 weeks) was 5.2 mg/dL and 5.3 mg/dL and 5.6 mg/dL, the “Blood uric acid level, Week 0” value (blood uric acid; adult human patients with diabetes and hyperuricemia, before administration (baseline)) was 7.2 mg/dL and 7.6 mg/dL and 7.9 mg/dL and the “blood uric acid level after administration (summary of the Table)” value (blood uric acid; patients with blood uric acid 7.0 mg/dl or greater, 200 mg orally twice a day, 4 weeks, normal range) was no more than 6.0 mg/dL.
